Assay results published in patent publication US8980249B2, “Agonists of growth hormone releasing hormone as effectors for survival and proliferation of pancreatic islets” (University of Miami, priority 2010, dated 2015).
Several values for one entry are separate records, joined by “and”; a condition that tells them apart may be missing. Identical values can stand only once. Entries after “also recorded” stand apart in the source; their conditions may differ. Square brackets hold non-standard residues; d marks the D form. Ends that are not written are not given here. * marks the point of attachment. Agmatine = N=C(N)NCCCCN*; Nle = CCCC[C@H](N)C(=O)O; Orn = NCCC[C@H](N)C(=O)O; Abu = CC[C@H](N)C(=O)O

Legend:
[1] = system: myocardial infarction (MI); details: in vivo; cited from earlier work
INS-1 cells [2] = test: Cell proliferation of INS-1 insulinoma cells; format: cell-based, rat
Protocol: (§1) Rat insulinoma cells (INS-1) were cultured in RPMI 1640 medium (PAA, Pasching, Austria) supplemented with 2 mM L-glutamine, 10% fetal bovine serum (FBS), 1 mM Na-pyruvate, 50 μM 2-mercaptoethanol and 100 U/ml penicillin-streptomycin (Gibco, Gaithersburg Md.) in a humidified 5% CO2/[…] atmosphere at 37° C. The culture medium was changed every other day. Cells were grown for 72 hrs prior to experimentation. GHRH agonist JI-36 (10^−6-10^−9 M) and GHRH antagonist MIA-602 ([…]) were used for 24-96 hrs, respectively.
(§2) INS-1 cells were grown for 72 hrs prior to experimentation; islets were collected immediately after the isolation procedure and each were divided into three treatment groups: (1) Culture media with vehicle (DMSO) served as control group, (2) Culture media containing GHRH agonist JI-36 (10^−6 M), (3) culture media with JI-36 plus GHRH antagonist MIA-602 (10^−6 M). Media change and addition of the analogues was performed after 24 hrs and 48 hrs in islet cultures and every other day in INS-1 cell cultures.

INS-1 cells [3] = test: Cell apoptosis of INS-1 cells (activity of caspases 3 and 7); format: cell-based, rat
Protocol: as §1, §2

INS-1 cells [4] = test: Ultrastructural analysis of INS-1 cells; format: cell-based, rat; details: JI-36 10^−6 M
Protocol: as §2

isolated rat islets [5] = test: Islet particle number and islet size (islet equivalents) in culture; format: cell-based; details: rat islets in culture with JI-36 10^−6 M
Protocol: Pancreatic islets were isolated from male Wistar rats according to guidelines established by the University of Dresden Institutional Animal Care and Use Committee. Animals were anesthetized by 3% isoflurane; digestion solution (Collagenase V, Sigma-Aldrich, St. Louis, Mo.) was injected in situ via the pancreatic common bile duct. Islets were purified by centrifugation on a discontinuous Ficoll gradient (Mediatech). Purified islets were maintained in culture media (CMRL 1066, Mediatech, USA) supplemented with 10% FBS at 37° C. in a 5% CO2 incubator. Volume and purity were determined by microscopic sizing after staining with dithizone (Sigma-Aldrich, St. Louis, Mo.).
Triplicate samples of 100 to 300 islet particles were stained with dithizone (Sigma-Aldrich, St. Louis, Mo.), which binds zinc ions present specifically in islet β-cells, and sized using an eyepiece reticle and inverted microscope (32). The term islet particle describes an individual islet independent of its size. All islet particles with a diameter >50 μm were divided into classes of 50 μm increments (i.e., 50-100, 100-150, 150-200, etc.) for calculation of islet equivalents (IEQ). Each diameter class was converted into the mean volume of 150-μm diameter islets by a relative conversion factor. These factors allow converting the total islet particle number from any preparation into IEQ. […]

isolated rat islets [6] = test: Immunostaining of islets for insulin and Ki-67; format: cell-based; details: 72 hrs in culture with JI-36
rat islets [7] = test: Islet membrane integrity, FDA/PI viability staining; format: cell-based; details: 72 hrs in culture, n=4
Protocol: Small aliquots of islets were transferred in phosphate-buffered saline (PBS) containing Petri dishes. Fluorescein diacetate (FDA) and propidium iodide (PI) were added to the samples at a final concentration of 0.5 and 75 μM, respectively. Using a fluorescence microscope, 100 islets were assessed for cell viability by estimating the percentage of viable cells (green) versus percentage of non-viable cells (red) within each islet. The percentage of viable cells was then calculated (33).

rat islets [8] = test: Static glucose-stimulated insulin secretion; format: cell-based
Protocol: For static insulin secretion in response to glucose challenge, islets were transferred into Petri dishes containing oxygenated Krebs-Ringer bicarbonate buffer (KRB, 137 mM NaCl, 4.7 mM KCl, 1.2 mM KH2PO4, 1.2 mM MgSO4-7H2O, 2.5 mM CaCl2-2H2O, 25 mM NaHCO3, 0.25% BSA) and pre-incubated in 3.3 mM glucose at 37° C. (5% CO2) for 30 min. Groups of 8-10 islets from the equilibration cultures were transferred to fresh oxygen-saturated media containing either 3.3 or 16.7 mM glucose and then incubated an additional 60 min in a 37° C. water bath with gentle shaking. Secreted insulin in the media was measured by ELISA (Millipore, Billerica, Mass.) and values normalized to extracted islet DNA (Quant-iT™ Picogreen, Invitrogen).

[9] = system: streptozotocin-induced diabetic NOD-SCID mice; test: Transplantation of pretreated rat islets beneath the kidney capsule of diabetic mice; format: in vivo
Protocol: NOD-SCID mice (MTZ breed) with induced diabetes were used as islet recipients following guidelines established by the University of Dresden Institutional Animal Care and Use Committee. Diabetes was induced by a single intraperitoneal injection of 180 mg/kg streptozotocin (Sigma-Aldrich, St. Louis, Mo.). Serum glucose was then measured daily using an Ascensia Elite glucometer (Bayer, Burr Ridge, Ill.). Mice were considered diabetic if non-fasting blood glucose (BG) was >350 mg/dL for two or more consecutive days. Rat islet preparations were used for transplantation. Islets from each preparation were divided into two groups, and JI-36 (10^−6 M) or vehicle (DMSO) was added to the culture media. Islets were cultured for 48 hrs prior to transplantation. After culture, samples of 300 IEQ were washed in transplant media (Ringer acetate with 5% glucose and 10% FBS), and transplanted to beneath the left kidney capsule. The animal experiments and housing were in accordance with institutional guidelines and German animal regulations.
The non-fasting blood glucose levels were measured daily during the first week and twice a week thereafter. On day 25, mice were subjected to an intraperitoneal glucose tolerance test (IPGTT). Two days later, grafts were removed. This led to a recurrence of the diabetic state. This proves that restoration and maintenance of normoglycemia was due to islet graft function.
On follow-up, sustained non-fasting blood glucose levels of ≦10 mM (≦180 mg/dl) were defined as “cure”, 10 to 18 mM (180 to 320 mg/dl) as “partial function” of transplanted islets, and levels above 18 mM (>320 mg/dl) as “graft failure”.

[10] = system: streptozotocin-induced diabetic NOD-SCID mice; test: Intraperitoneal glucose tolerance test after islet transplantation; format: in vivo
Protocol: Mice were fasted overnight (at least 6 hrs) before examination. A glucose solution was given at 3 g/kg BW i.p. and blood glucose was recorded before injection and 15, 30, 45, 60, 90 and 120 min following glucose injection. Non-transplanted mice were used as controls and tested concurrently.

cardiomyocytes = details: in vitro; cited from earlier work
rat hearts = details: cited from earlier work

In the case of “(Dat^1, Gln^8, Orn^12,21, Abu^15, Nle^27, Asp^28, Agm^29)hGH-RH(1-29) [JI-38]”, the “cardiac effect following myocardial infarction” value [1] is listed as “favorable cardiac effect, attenuating infarct size”.
For “(Dat^1, Thr^8, Orn^12,21, Abu^15, Nle^27, Asp^28, Agm^29)hGH-RH(1-29) ([Dat]ADAIFTTSYR[Orn]VL[Abu]QLSAR[Orn]LLQDI[Nle]D[Agmatine]) [JI-36, synthetic GHRH agonist]”, the “cell proliferation rates (in words)” value (INS-1 cells [2]; 10^−6-10^−9 M, 24-96 hrs) was “significant and dose-dependent increase”, the “increase in cell proliferation compared to control” value (INS-1 cells [2]; JI-36 10^−6 M, 72 hrs) was 50% and the “most effective concentration for cell proliferation” value (INS-1 cells [2]; tested 10^−6-10^−9 M) was 10^−6 M. For the same substance, the “degree of cell apoptosis (in words)” value (INS-1 cells [3]; 10^−6-10^−9 M, 24-96 hrs, INS-1 cells) was “significant decrease; also recorded: reduction”, the “reduction of apoptosis (activity of caspases 3 and 7)” value (INS-1 cells [3]; JI-36 10^−6 M, 72 hrs, INS-1 cells) was 20% and the “time of maximal anti-apoptotic effect” value (INS-1 cells [3]; incubation 24-96 hrs) was 72 h. The “most effective concentration for anti-apoptotic effect” value (INS-1 cells [3]; tested 10^−6-10^−9 M, INS-1 cells) was 10^−6 M, the “ultrastructural changes / metabolic state” value (INS-1 cells [4]) was “more active metabolic state; also recorded: metabolic active stimulation state with increased cytoplasm” and the “islet equivalents (IEQ/IP ratio, islet size) versus control” value (isolated rat islets [5]; 24-72 hrs) was “increased islet size”. The “number of islet particles over time versus control” value (isolated rat islets [5]; up to 72 hrs) was “no relevant change; also recorded: no difference between treatment group and control”, the “insulin and Ki-67 staining (proliferation in beta cells)” value (isolated rat islets [6]) was “co-localization of the two markers” and the islet viability (rat islets [7]) was 96±3.3%. The “insulin release at basal glucose versus control (in words)” value (rat islets [8]; 3.3 mM glucose) was “slight increase; also recorded: did not cause a relevant difference”, the “insulin release at basal glucose” value (rat islets [8]; 3.3 mM glucose, 1 hr, after 48 hrs exposure, n=5) was 2.3 ± 0.5 ng/mL and the “insulin release upon glucose stimulation compared to control (in words)” value (rat islets [8]; 16.7 mM glucose) was “more than double; also recorded: increased”. For the same substance, the “insulin release at high glucose” value (rat islets [8]; 16.7 mM glucose, after 48 hrs exposure, n=5) was 8.2 ± 0.2 ng/mL, the “insulin release at high glucose relative to basal glucose” value (rat islets [8]; 16.7 mM vs 3.3 mM glucose) was 3.6 fold and the “animals cured (stable normoglycemia)” value ([9]; 300 IEQ islets pretreated with JI-36 10^−6 M 48 hrs, day 25) was 5 of 6 and 5 out of 6. The “graft integration (insulin immunostaining)” value ([9]; day 27 after transplantation) was “stable graft integration”, the “blood glucose control after transplantation versus untreated islets (in words)” value ([9]; islets pretreated with JI-36) was “consistently performed better; also recorded: rapid and persistent recovery from diabetes; also recorded: earlier and more consistently” and the “animals with partial graft function” value ([9]; islets pretreated with JI-36, day 25) was “one”. For the same substance, the “time to revert initial hyperglycemia to normal ranges in IPGTT” value ([10]; day 25) was no more than 2 h and the “response in IPGTT” value ([10]; day 25, glucose 3 g/kg i.p.) was “comparable to that of normal healthy mice”.
In the case of “rat GHRH: rat growth hormone-releasing hormone, cited cardioprotection study (HADAIFTSSYRRILGQLYARKLLHEIMNRQQGERNQEQRSRFN; Somatoliberin; UniProt P09916 31-73, looked up)”, the survival of cardiomyocytes (cardiomyocytes) is listed as “promoted survival” and the “protection from ischemia-reperfusion injury” value (rat hearts) is listed as “protected”.
